± gives the expanded uncertainty stated by the source.
Legend:
[1] = Liquid
[2] = xn = mol fraction of the nth substance listed; details: Liquid, x1 = 1
[3] = 293.15 K, 100 kPa, Capillary tube (Ostwald / Ubbelohde) method
[4] = 293.15 K, 20000 kPa, Falling or rolling sphere viscometry
[5] = 293.15 K, 40000 kPa, Falling or rolling sphere viscometry
[6] = 293.15 K, 60000 kPa, Falling or rolling sphere viscometry
[7] = 293.15 K, 80000 kPa, Falling or rolling sphere viscometry
[8] = 293.15 K, 100000 kPa, Falling or rolling sphere viscometry
[9] = 313.15 K, 100 kPa, Capillary tube (Ostwald / Ubbelohde) method
[10] = 313.15 K, 20000 kPa, Falling or rolling sphere viscometry
[11] = 313.15 K, 40000 kPa, Falling or rolling sphere viscometry
[12] = 313.15 K, 60000 kPa, Falling or rolling sphere viscometry
[13] = 313.15 K, 80000 kPa, Falling or rolling sphere viscometry
[14] = 313.15 K, 100000 kPa, Falling or rolling sphere viscometry
[15] = 333.15 K, 100 kPa, Capillary tube (Ostwald / Ubbelohde) method
[16] = 333.15 K, 20000 kPa, Falling or rolling sphere viscometry
[17] = 333.15 K, 40000 kPa, Falling or rolling sphere viscometry
[18] = 333.15 K, 60000 kPa, Falling or rolling sphere viscometry
[19] = 333.15 K, 80000 kPa, Falling or rolling sphere viscometry
[20] = 333.15 K, 100000 kPa, Falling or rolling sphere viscometry
[21] = 353.15 K, 20000 kPa, Falling or rolling sphere viscometry
[22] = 353.15 K, 40000 kPa, Falling or rolling sphere viscometry
[23] = 353.15 K, 60000 kPa, Falling or rolling sphere viscometry
[24] = 353.15 K, 80000 kPa, Falling or rolling sphere viscometry
[25] = 353.15 K, 100000 kPa, Falling or rolling sphere viscometry

SMILES: CCO [ethanol]
- viscosity [1, 3]: 1.194 ± 0.025 mPa·s
- viscosity [1, 4]: 1.344 ± 0.058 mPa·s
- viscosity [1, 5]: 1.494 ± 0.065 mPa·s
- viscosity [1, 6]: 1.647 ± 0.071 mPa·s
- viscosity [1, 7]: 1.797 ± 0.077 mPa·s
- viscosity [1, 8]: 1.955 ± 0.084 mPa·s
- viscosity [1, 9]: 0.826 ± 0.017 mPa·s
- viscosity [1, 10]: 0.948 ± 0.042 mPa·s
- viscosity [1, 11]: 1.059 ± 0.047 mPa·s
- viscosity [1, 12]: 1.171 ± 0.052 mPa·s
- viscosity [1, 13]: 1.282 ± 0.056 mPa·s
- viscosity [1, 14]: 1.392 ± 0.061 mPa·s
- viscosity [1, 15]: 0.59 ± 0.013 mPa·s
- viscosity [1, 16]: 0.683 ± 0.03 mPa·s
- viscosity [1, 17]: 0.769 ± 0.034 mPa·s
- viscosity [1, 18]: 0.851 ± 0.037 mPa·s
- viscosity [1, 19]: 0.934 ± 0.041 mPa·s
- viscosity [1, 20]: 1.015 ± 0.044 mPa·s
- viscosity [1, 21]: 0.51 ± 0.022 mPa·s
- viscosity [1, 22]: 0.574 ± 0.025 mPa·s
- viscosity [1, 23]: 0.636 ± 0.028 mPa·s
- viscosity [1, 24]: 0.699 ± 0.031 mPa·s
- viscosity [1, 25]: 0.763 ± 0.033 mPa·s

SMILES: CCO [ethanol] + CCCCCCC
- viscosity [2, 3]: 1.194 ± 0.025 mPa·s
- viscosity [2, 4]: 1.344 ± 0.058 mPa·s
- viscosity [2, 5]: 1.494 ± 0.065 mPa·s
- viscosity [2, 6]: 1.647 ± 0.071 mPa·s
- viscosity [2, 7]: 1.797 ± 0.077 mPa·s
- viscosity [2, 8]: 1.955 ± 0.084 mPa·s
- viscosity [2, 9]: 0.826 ± 0.017 mPa·s
- viscosity [2, 10]: 0.948 ± 0.042 mPa·s
- viscosity [2, 11]: 1.059 ± 0.047 mPa·s
- viscosity [2, 12]: 1.171 ± 0.052 mPa·s
- viscosity [2, 13]: 1.282 ± 0.056 mPa·s
- viscosity [2, 14]: 1.392 ± 0.061 mPa·s
- viscosity [2, 15]: 0.59 ± 0.013 mPa·s
- viscosity [2, 16]: 0.683 ± 0.03 mPa·s
- viscosity [2, 17]: 0.769 ± 0.034 mPa·s
- viscosity [2, 18]: 0.851 ± 0.037 mPa·s
- viscosity [2, 19]: 0.934 ± 0.041 mPa·s
- viscosity [2, 20]: 1.015 ± 0.044 mPa·s
- viscosity [2, 21]: 0.51 ± 0.022 mPa·s
- viscosity [2, 22]: 0.574 ± 0.025 mPa·s
- viscosity [2, 23]: 0.636 ± 0.028 mPa·s
- viscosity [2, 24]: 0.699 ± 0.031 mPa·s
- viscosity [2, 25]: 0.763 ± 0.033 mPa·s

SMILES: CCCCCCC [heptane]
- viscosity [1, 3]: 0.41 ± 0.009 mPa·s
- viscosity [1, 4]: 0.509 ± 0.021 mPa·s
- viscosity [1, 5]: 0.604 ± 0.025 mPa·s
- viscosity [1, 6]: 0.706 ± 0.03 mPa·s
- viscosity [1, 7]: 0.817 ± 0.034 mPa·s
- viscosity [1, 8]: 0.937 ± 0.039 mPa·s
- viscosity [1, 9]: 0.333 ± 0.007 mPa·s
- viscosity [1, 10]: 0.408 ± 0.017 mPa·s
- viscosity [1, 11]: 0.487 ± 0.02 mPa·s
- viscosity [1, 12]: 0.57 ± 0.024 mPa·s
- viscosity [1, 13]: 0.658 ± 0.028 mPa·s
- viscosity [1, 14]: 0.751 ± 0.032 mPa·s
- viscosity [1, 15]: 0.276 ± 0.006 mPa·s
- viscosity [1, 16]: 0.336 ± 0.014 mPa·s
- viscosity [1, 17]: 0.402 ± 0.017 mPa·s
- viscosity [1, 18]: 0.472 ± 0.02 mPa·s
- viscosity [1, 19]: 0.546 ± 0.023 mPa·s
- viscosity [1, 20]: 0.623 ± 0.026 mPa·s
- viscosity ([1]; 353.15 K, 100 kPa, Capillary tube (Ostwald / Ubbelohde) method): 0.232 ± 0.005 mPa·s
- viscosity [1, 21]: 0.289 ± 0.012 mPa·s
- viscosity [1, 22]: 0.346 ± 0.014 mPa·s
- viscosity [1, 23]: 0.401 ± 0.017 mPa·s
- viscosity [1, 24]: 0.458 ± 0.019 mPa·s
- viscosity [1, 25]: 0.521 ± 0.022 mPa·s

— the NIST ThermoML archive (doi:10.1016/j.fluid.2006.01.030)
